This note sets out measurements from patent US8431596B2 (Cancer Research Technology Limited, priority 2007, dated 2013).

Structures are written as SMILES. A value given as a limit tells only on which side of the number the result lay.

This assay deals with T1, AXL (human catalytic domain) (Homo sapiens, UniProt P30530).
T1 construct: purchased Upstate Ltd. 14-512
T1 sequence (P30530 473-894): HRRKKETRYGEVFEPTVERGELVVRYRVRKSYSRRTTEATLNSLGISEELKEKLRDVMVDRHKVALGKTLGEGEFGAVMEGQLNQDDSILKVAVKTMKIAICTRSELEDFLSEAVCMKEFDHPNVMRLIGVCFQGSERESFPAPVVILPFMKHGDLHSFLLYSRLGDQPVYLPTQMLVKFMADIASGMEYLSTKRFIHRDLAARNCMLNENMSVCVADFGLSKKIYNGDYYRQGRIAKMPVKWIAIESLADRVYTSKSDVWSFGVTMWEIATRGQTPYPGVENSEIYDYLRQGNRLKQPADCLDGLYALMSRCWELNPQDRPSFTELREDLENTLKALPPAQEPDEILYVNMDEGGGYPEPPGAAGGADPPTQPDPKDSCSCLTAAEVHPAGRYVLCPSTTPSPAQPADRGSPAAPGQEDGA
Briefly: AXL (human catalytic domain) Enzyme Activity Assay (IMAP fluorescence polarisation). Format: biochemical. A digest of the protocol:
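Recombinant human AXL isoform 1 (aa473-894; final 15 nM) phosphorylated 100 nM fluorescein-CSK-tide with 150 μM ATP (KM) in HEPES pH 7.0/MgCl2/DTT buffer for 60 min at room temperature. IMAP fluorescence polarisation read after overnight binding; IC50 from 10-point 4-parameter logistic fits.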
In general terms: In fluorescence polarisation assays a small probe gives low polarisation when free and higher when bound to something large.

[1] abbreviates: first data set, recombinant AXL isoform 1 aa473-894, 150 μM ATP.
[2] abbreviates: further data set (WW-001 through WW-169, XX-001 through XX-469, YY-001 through YY-016, ZZ-001 through ZZ-003), 150 μM ATP.

The term IC50 denotes the concentration needed to halve the response being measured. With `COc1ccc(-c2cccc3nc(NC(=O)CC(C)C)nn23)cc1` [WW-043], the IC50 is 1 to 10 µM under setting [1] and 1 to 10 µM under setting [2].
Turning to `c1csc(SCCn2cc(-c3cccc4nc(Nc5ccc(OCCN6CCCC6)cc5)nn34)cn2)c1` [XX-426], the half-maximal inhibitory concentration (IC50) under setting [2] lay in the range of 0.1 to 1 µM.
Still for that read-out and setting: for `O=C(Nc1cccc(Cl)c1)Nc1cccc(-c2cccc3nc(Nc4ccc(OCCN5CCCC5)cc4)nn23)c1` [XX-176] the value was 0.1 to 1 µM.
As for `NCCCNc1ccc(-c2cccc3nc(NC(=O)C4CC4)nn23)cc1` [WW-157], the IC50 by setting is: under setting [1], 1 to 10 µM; under setting [2], 1 to 10 µM.
With `c1csc(Cn2cc(-c3cccc4nc(Nc5ccc(OCCN6CCCC6)cc5)nn34)cn2)c1` [XX-275], under setting [2], the IC50 lay within 0.1 to 1 µM.
Compound `c1ccc(Cn2cc(-c3nccc4nc(Nc5ccc(OCCN6CCCC6)cc5)nn34)cn2)cc1` [YY-011, [5-(1-Benzyl-1H-pyrazol-4-yl)-[1,2,4]triazolo[1,5-c]pyrimidin-2-yl]-[4-(2-pyrrolidin-1-yl-ethoxy)-phenyl]-amine] displayed an IC50 under setting [2] of 0.1 to 1 µM.
Still for that read-out and setting: for `Cc1nn(C)c(C)c1-c1cccc(-c2cccc3nc(Nc4ccc(OCCN5CCCC5)cc4)nn23)c1` [XX-170] the value was 0.1 to 1 µM; for `COc1c(C)cc(-c2cccc3nc(Nc4ccc(OCCN5CCCC5)cc4)nn23)cc1C` [XX-207], 0.1 to 1 µM.
`COc1ccc(-c2cccc3nc(Nc4ccc(C(=O)NCCN5CCCC5)s4)nn23)cc1` [XX-409] showed an IC50 under setting [2] of 0.1 to 1 µM.
Take `CNCCCOc1cccc(Nc2nc3cccc(-c4ccc5c(c4)OCCO5)n3n2)c1` [XX-069]: the half-inhibitory concentration (IC50) is, setting by setting: under setting [1], under 1 µM; under setting [2], at most 0.1 µM.
For `COc1ccc(-c2cccc3nc(Nc4ccc(OCCNCc5ccc(N)cc5)cc4)nn23)cc1` [XX-034], the IC50 is under 1 µM under setting [1] and 0.1 to 1 µM under setting [2].
Take `COc1ccc(-c2cccc3nc(NC(=O)C4CC4)nn23)c(OC)c1` [WW-010, Cyclopropanecarboxylic acid [5-(2,4-dimethoxy-phenyl)-[1,2,4]triazolo[1,5-a]pyridin-2-yl]-amide]: the concentration for half-maximal inhibition (IC50) reads like this: under setting [1], 1 to 10 µM; under setting [2], 1 to 10 µM.
`Cc1cc(C)cc(-c2cccc3nc(Nc4ccc(OCCN5CCCC5)cc4)nn23)c1` [XX-292] came in with a concentration for half-maximal inhibition (IC50) under setting [2] of 0.1 to 1 µM.
With `O=C(Nc1nc2cccc(-c3ccc(Oc4ccccc4)cc3)n2n1)C1CC1` [WW-162], the IC50 reads like this: under setting [1], 1 to 10 µM; under setting [2], 1 to 10 µM.
`CNCCOc1cccc(Nc2nc3cccc(-c4ccc5occc5c4)n3n2)c1` [XX-086]: the concentration for half-maximal inhibition (IC50) reads like this: under setting [1], under 1 µM; under setting [2], at most 0.1 µM.
With `Cc1ccc(-c2nccc3nc(Nc4ccc(OCCN5CCCC5)cc4)nn23)cc1F` [YY-014], under setting [2], the IC50 is at most 0.1 µM.
Under setting [2], `COc1cc(-c2cccc3nc(Nc4ccc(OCCN5CCCC5)cc4)nn23)cc(OC)c1OC` [XX-246] yielded an IC50 of 1 to 10 µM.
The same measure, in the same setting: for `NCCSc1ccc(Nc2nc3cccc(-c4ccc5c(c4)OCCO5)n3n2)cc1` [XX-108] the value was at most 0.1 µM; for `CCN(CC)CCOc1cc(Nc2nc3cccc(-c4ccc(OC)c(F)c4)n3n2)ccn1` [XX-359], at most 0.1 µM; for `O=C(O)Cn1cc(-c2cccc3nc(Nc4ccc(OCCN5CCCC5)cc4)nn23)cn1` [XX-440, (4-{2-[4-(2-Pyrrolidin-1-yl-ethoxy)-phenylamino]-[1,2,4]triazolo[1,5-a]pyridin-5-yl}-pyrazol-1-yl)-acetic acid], 1 to 10 µM.
Still for that read-out and setting: for `CCOc1ccc(-c2nccc3nc(Nc4cccc(OCCN(CC)CC)c4)nn23)cc1` [YY-005] the value was 1 to 10 µM; for `Nc1nnc(SCCn2cc(-c3cccc4nc(Nc5ccc(OCCN6CCCC6)cc5)nn34)cn2)[nH]1` [XX-327, (5-{1-[2-(5-Amino-4H-[1,2,4]triazol-3-ylsulfanyl)-ethyl]-1H-pyrazol-4-yl}-[1,2,4]triazolo[1,5-a]pyridin-2-yl)-[4-(2-pyrrolidin-1-yl-ethoxy)-phenyl]-amine], 1 to 10 µM; for `CS(=O)(=O)OCCn1cc(-c2cccc3nc(Nc4ccc(OCCN5CCCC5)cc4)nn23)cn1` [XX-091, Methanesulfonic acid 2-(4-{2-[4-(2-pyrrolidin-1-yl-ethoxy)-phenylamino]-[1,2,4]triazolo[1,5-a]pyridin-5-yl}-pyrazol-1-yl)-ethyl ester], 0.1 to 1 µM.
Compound `O=C(CCN1CCCC1)Nc1cccc(Nc2nc3cccc(-c4ccc5c(c4)OCCO5)n3n2)c1` [XX-109] registered an IC50 under setting [2] of 0.1 to 1 µM.
For `Fc1ccc(Nc2nc3cccc(-c4ccc5c(c4)OCCO5)n3n2)cc1OCCN1CCCC1` [XX-134], the half-inhibitory concentration (IC50) under setting [2] was in the range of 0.1 to 1 µM.
The same measure, in the same setting: for `CC(Oc1cccc(-c2cccc3nc(Nc4ccc(OCCN5CCCC5)cc4)nn23)c1)C(=O)Nc1ccccc1` (stereo not shown) [XX-403] the value was 0.1 to 1 µM; for `O=C(Nc1ccc(-c2cccc3nc(Nc4ccc(OCCN5CCCC5)cc4)nn23)cc1)c1ccno1` [XX-250], 0.1 to 1 µM.
As to `CC(C)CCn1cc(-c2cccc3nc(NC(=O)C4CC4)nn23)cn1` [WW-135], the IC50 by setting is: under setting [1], 1 to 10 µM; under setting [2], 1 to 10 µM.
Regarding `Fc1ccc(CNc2cccc(-c3cccc4nc(Nc5ccc(OCCN6CCCC6)cc5)nn34)c2)nc1` [XX-443], the IC50 under setting [2] lay within 0.1 to 1 µM.
Turning to `COc1ccc(-c2cccc3nc(NCC4CC4)nn23)cc1` [XX-003, Cyclopropylmethyl-[5-(4-methoxy-phenyl)-[1,2,4]triazolo[1,5-a]pyridin-2-yl]-amine], the IC50 was 1 to 10 µM under setting [1] and 0.1 to 1 µM under setting [2].
Turning to `O=C(Nc1cccc(-c2cccc3nc(Nc4ccc(OCCN5CCCC5)cc4)nn23)c1)c1ccno1` [XX-192], the 50% inhibitory concentration (IC50) under setting [2] lay in the range of 0.1 to 1 µM.
Under setting [2], `CCCCNc1cccc(-c2cccc3nc(Nc4ccc(OCCN5CCCC5)cc4)nn23)c1` [XX-399] showed an IC50 of 0.1 to 1 µM.
With `COc1ccc(-c2cccc3nc(Nc4cccc(OCCN5CCOCC5)c4)nn23)cc1` [XX-014], the concentration for half-maximal inhibition (IC50) was under 1 µM under setting [1] and 0.1 to 1 µM under setting [2].
As for `c1cc(-c2ccc3c(c2)OCCCO3)n2nc(Nc3ccc(OCCN4CCCC4)cc3)nc2c1` [XX-209], the IC50 under setting [2] is 0.1 to 1 µM.
The same measure, in the same setting: for `CCN(CC)CCNc1cccc(Nc2nc3cccc(-c4ccc5c(c4)OCCO5)n3n2)c1` [XX-128] the value was 0.1 to 1 µM; for `O=C(Cn1cc(-c2cccc3nc(Nc4ccc(OCCN5CCCC5)cc4)nn23)cn1)Nc1ccccc1` [XX-432], 0.1 to 1 µM; for `Fc1ccccc1CNc1cccc(-c2cccc3nc(Nc4ccc(OCCN5CCCC5)cc4)nn23)c1` [XX-238], 0.1 to 1 µM.
`COc1ccc(-c2cccc3nc(NC(C)=O)nn23)cc1` [WW-039]: the half-inhibitory concentration (IC50) runs as follows: under setting [1], 1 to 10 µM; under setting [2], 1 to 10 µM.
For `O=C(CCN1CCCCC1)Nc1cccc(Nc2nc3cccc(-c4ccc5c(c4)OCCO5)n3n2)c1` [XX-125], under setting [2], the half-inhibitory concentration (IC50) is 0.1 to 1 µM.
The same measure, in the same setting: for `O=S(=O)(c1ccc(Nc2nc3cccc(-c4ccc5c(c4)OCCO5)n3n2)cc1)N1CCNCC1` [XX-145] the value was 0.1 to 1 µM; for `CCN(CC)CCOc1ccc(Nc2nc3cccc(-c4ccc(OC)cc4)n3n2)cc1F` [XX-412], 1 to 10 µM; for `O=C(Nc1ccc(Cl)cc1)Nc1cccc(-c2cccc3nc(Nc4ccc(OCCN5CCCC5)cc4)nn23)c1` [XX-233], 1 to 10 µM.
Same read-out and setting: for `CC[C@H](C)Cn1cc(-c2cccc3nc(Nc4ccc(OCCN5CCCC5)cc4)nn23)cn1` [XX-320] the value was at most 0.1 µM; for `FC(F)(F)c1cc(-c2cccc3nc(Nc4ccc(OCCN5CCCC5)cc4)nn23)ccc1Cl` [XX-291], 0.1 to 1 µM.
On the same count and under the same terms, for `Cc1ccc(-c2cccc3nc(Nc4ccc(OCCCN5CCCCC5)cc4)nn23)cc1F` [XX-421] the value was 0.1 to 1 µM.
Consider `O=C(Nc1nc2cccc(-c3ccc4c(c3)OCO4)n2n1)C1CC1` [WW-049], for which the IC50 runs as follows: under setting [1], under 1 µM; under setting [2], 0.1 to 1 µM.
The matching figures for `COc1ccc(-c2cccc3nc(NC(=O)CC4CC4)nn23)cc1` [WW-038]: 1 to 10 µM and 1 to 10 µM.
In the case of `CCN(CC)CCC(=O)Nc1ccc(Nc2nc3cccc(-c4ccc5c(c4)OCCO5)n3n2)cc1` [XX-122], the IC50 under setting [2] lay in the range of 0.1 to 1 µM.
For the compound `Nc1cccc(-c2cccc3nc(Nc4ccc(OCCN5CCCC5)cc4)nn23)c1` [XX-255, [5-(3-Amino-phenyl)-[1,2,4]triazolo[1,5-a]pyridin-2-yl]-[4-(2-pyrrolidin-1-yl-ethoxy)-phenyl]-amine], under setting [2], the IC50 lay within 0.1 to 1 µM.
In the case of `CN(C)C/C=C/c1cccc(Nc2nc3cccc(-c4ccc5c(c4)OCCO5)n3n2)c1` [XX-083], the half-maximal inhibitory concentration (IC50) under setting [1] was under 1 µM and the 50% inhibitory concentration (IC50) under setting [2] is at most 0.1 µM.
The compound `c1cc(-c2ccc3c(c2)OCCO3)n2nc(Nc3ccnc(OCCN4CCCC4)c3)nc2c1` [XX-099] returned a half-maximal inhibitory concentration (IC50) under setting [2] of 0.1 to 1 µM.
On the same count and under the same terms, for `COc1ccc(CNc2cccc(-c3cccc4nc(Nc5ccc(OCCN6CCCC6)cc5)nn34)c2)cc1` [XX-453] the value was 0.1 to 1 µM; for `c1cc(-c2ccco2)cc(-c2cccc3nc(Nc4ccc(OCCN5CCCC5)cc4)nn23)c1` [XX-168], 0.1 to 1 µM.
The same measure, in the same setting: for `c1cc(-c2ccc3c(c2)OCCO3)n2nc(Nc3ccc(NCCCN4CCCCC4)cc3)nc2c1` [XX-129] the value was 0.1 to 1 µM; for `Cc1noc(C)c1-c1ccc(-c2cccc3nc(Nc4ccc(OCCN5CCCC5)cc4)nn23)cc1` [XX-190], 0.1 to 1 µM; for `Clc1cccc(Cn2cc(-c3cccc4nc(Nc5ccc(OCCN6CCCC6)cc5)nn34)cn2)c1` [XX-352], 0.1 to 1 µM.
